Bounds are passed on as bounds.

One data set relates to BV2 microglia cell line. The data set is described as follows: WST-1 assay of PMA-induced ROS production. The data set is classed as cell-based. The source says: The WST-1 assay allows to measure the ROS produced by cell cultures.
For data set [1] the following is noted: cited from earlier work.
A further data set has as its target T1, human recombinant TSPO (Homo sapiens, UniProt P30536).
T1 construct: purchased LSBio
The data set is described as follows: Microscale thermophoresis (MST) binding to isolated TSPO. The note with it: 5 nM red-tagged hTSPO. For orientation: Microscale thermophoresis detects binding through changes in fluorescence in a small temperature gradient.

T1 sequence (P30536 whole entry): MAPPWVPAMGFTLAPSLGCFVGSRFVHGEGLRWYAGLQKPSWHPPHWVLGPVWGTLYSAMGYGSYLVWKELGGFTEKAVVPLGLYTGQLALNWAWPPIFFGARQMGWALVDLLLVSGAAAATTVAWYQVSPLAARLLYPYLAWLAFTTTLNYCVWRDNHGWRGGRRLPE
Description for human recombinant TSPO: The tests were performed by using isolated human recombinant TSPO (purchased from LSBio). The lyophilized protein was resuspended in Tris buffer and stored at −80° C. as per manufacturer instructions. Labelling with a deep-red fluorophore was performed by using the Monolith labeling kit-RED from Nanothemper. Briefly, 200 nM of hTSPO was resuspended in Tris/Sarkosyl 0.1% buffer and then mixed with a solution containing anti-His red-fluorophore at 100 nM concentration. After incubation for 30 minutes at RT, the mixture was centrifuged at 15000 g for 10 minutes at 4° C., to pellet any aggregate or precipitate. […] MST was then performed to assess binding.

Turning to `c1ccc2c(c1)[I+]c1ccccc1-2` [DPI, diphenylene iodonium], the “effect on PMA-induced ROS” value in the data set on BV2 microglia cell line (co-incubation with PMA) was “able to counteract the induction of ROS”.

In the case of `COc1cc(C(C)=O)cc(-c2cc(C(C)=O)cc(OC)c2O)c1O` [Diapocynin], in the data set on BV2 microglia cell line (PMA 50 ng/ml, nominal concentration for encapsulated drug), the “concentration inhibiting the PMA-induced increase of ROS” value was ≥ 50 µM. The pKa in data set [1] is listed as 7.4.

On to `CCC(C)N(C)C(=O)c1cc2ccccc2c(-c2ccccc2Cl)n1` (stereo not drawn) [PK11195], for which the “change in MST profile of tagged hTSPO” value at human recombinant TSPO (ligand 250 μM) is given as “significant change in the MST profile”.

`CCCCCCCCCCCCCC(=O)O[C@@H]1[C@@H](C)[C@@]2(O)[C@@H](C=C(CO)C[C@]3(O)C(=O)C(C)=C[C@@H]23)[C@@H]2C(C)(C)[C@]12OC(C)=O` [PMA, phorbol ester myristate acetate]: the “increase of ROS production as compared to untreated control” value in the data set with BV2 microglia cell line (50 ng/ml for 6 hours) is 30-40%.

Consider `CN1C(=O)CN=C(c2ccc(Cl)cc2)c2cc(Cl)ccc21` [Ro5-4864], for which, at human recombinant TSPO (tested at 500 μM), the “change in MST profile of tagged hTSPO / binding” value is on record as “significant change in the MST profile”.

By pKa is commonly meant the pH at which an ionisable group is half protonated.

(Values after patent US12161663B2, “Compositions and methods for targeting cells” (Children's Medical Center Corporation, priority 2018, dated 2024).)
